Measurements reported in patent US11340216B2, “Methods and compositions for the positive selection of protein destabilizers” (Dana-Farber Cancer Institute, Inc., priority 2016, dated 2022).

Key:
[1] = tested on: EV-GFP / dCK-Tomato cell mixture; experiment: Cell mixing (bystander effect) assay, EV-GFP cells with dCK-Tomato cells, flow cytometry; assay type: cell-based; conditions: 100 μM BVdU, 100,000 cells/well, start 8% EV-GFP
Description: The scheme depicted in FIG. 14 generally describes the bystander effect assay in the context of dCK positive selection systems. Cells expressing dCK and tomato fluorescent protein (Td) are mixed with cells having empty vector (EV) and green fluorescent protein (GFP). When cultured with BVdU, cells expressing dCK are expected to convert the nucleotide analog into a product that elicits cytotoxicity, resulting in outgrowth of resistant cells (EV-GFP) as measured by relative GFP/Td fluorescence in the absence of significant bystander killing.
The effects of cell density in cell mixture experiments were examined. EV-GFP cells were mixed together with dCK-Tomato cells in a ratio of 1:9, and the resulting mixture of cells was plated in 6 well plates at 500,000 cells/well, 250,000 cells/well, and 100,000 cells/well, with two wells plated per cell density (FIG. 15). For each cell density, one well received 100 μM BVdU, and the other an equivalent amount of DMSO. Cells were split and re-seeded every 72 hours, to preserve cell density, and analyzed by flow cytometry to quantify the fraction of GFP and Tomato-labeled cells.

[2] = tested on: DCK-IKZF1-IRES-GFP in 293T cells; experiment: Pilot drug screen, up assay, 384 well, GFP fluorescence converted to Z-statistic; assay type: cell-based; conditions: ~25 μM library drug, BVdU Day 1, read Day 5, FIG. 24
Experimental: Columns 1, 23, and 24 of the plate shown in FIG. 23 (right) were treated with DMSO, Pomalidomide, and Dipyridamole, respectively, while each well in Columns 2-22 was treated with an individual drug (concentration=˜25 μM) from a library of approximately 550 bioactive chemicals. On Day 1, Column 1 was treated with DMSO, and Columns 2-24 were treated with BVdU. On Day 5, GFP fluorescence in each well was quantified using an Acumen Laser Cytometer.

DCK-IKZF1-IRES-GFP = experiment: Same-well assay, 1:1 mixture of DCK-IRES-Tomato and DCK-IKZF1-IRES-GFP 293T stables, GFP/Tomato ratio; assay type: cell-based; conditions: BVdU exposure, FIG. 28
Experimental: However, exposure of the cells to Pomalidomide and subsequent BVdU exposure specifically rescues the DCK-IKZF1-IRES-GFP population and increases the GFP/Tomato ratio.
This assay was deployed in a proof of concept experiment with a small library of ˜88 engineered IMiD derivatives and plated at 10 serial dilutions ranging from 10 μM to 300 pM.

[3] = target: T1, deoxycytidine kinase (dCK) (Homo sapiens, UniProt P27707); experiment: BVdU sensitivity and pomalidomide rescue, cell count by Vi-Cell, cells expressing unfused dCK; assay type: cell-based; conditions: 2 μM pomalidomide, BVdU dose-response, FIG. 8
T1 construct: V5 (only if expressed from the GFP vector); expressed in transfected cells
Experimental: (§1) To assess the validity of the proposed positive selection system, a set of experiments was devised according to the technique outlined in FIG. 6. On day −2, 1×10^6 cells were seeded into a 6 cm dish with 4 mL of DMEM culture media. On day −1, 30,000 cells were seeded per well of a 6 well plate in DMEM media, and on day 0, media were replaced with DMEM media supplemented with decreasing concentrations of BVdU, generated by serial dilution. From days 0-4, media were replaced daily, and on day 5, cells were counted by Vi-Cell. For pomalidomide rescue experiments, the cells were seeded as described above, but from day −2 onwards, were maintained in DMEM media supplemented with 2 μM pomalidomide (Selleck Chemicals).

dCK-IKZF3 fusion protein [4] = experiment: Competition assay, dCK-IKZF3 GFP cells mixed with dCK tdTomato cells, flow cytometry; assay type: cell-based; conditions: 2 μM pomalidomide plus 100 μM BVdU, 14 days, FIG. 22
Description: Next, a competition assay was devised using dCK and CK-IKZF constructs (FIG. 21). In these experiments, cells expressing dCK-IKZF fusion protein and GFP were mixed with cells expressing dCK and tdTomato. In the presence of BVdU, cells expressing either construct would be capable of generating the cytotoxic product. However, upon the addition of an IMiD (pomalidomide), dCK-IKZF fusion protein would be destabilized, allowing outgrowth of GFP+ cells. dCK-IKZF3 cells labeled with GFP were mixed with dCK cells labeled with tdTomato at a ratio of 1:99 and on day −2, were plated into 6 well plates at 100,000 cells/well in triplicate. On Day −1, the “Mock” and “BVdU” wells were treated with DMSO, and the “pomalidomide” well was treated with 2 μM pomalidomide. On day 0, the “Mock” well was treated with DMSO, while the “BVdU” well was treated with 100 μM BVdU, and the “pomalidomide” well received 2 μM pomalidomide and 100 μM BvDU. Cells were split, re-seeded to maintain cell density, treated with the appropriate drugs and analyzed by flow cytometry every 3 days.

dCK-IKZF3 fusion protein [5] = experiment: BVdU sensitivity and pomalidomide rescue, cell count by Vi-Cell, cells expressing dCK-IKZF3 fusion; assay type: cell-based; conditions: 2 μM pomalidomide, 100 μM BVdU, counted day 5, FIG. 7
Experimental: as §1

[6] = tested on: IKZF3 and IKZF3 fusion proteins; conditions: 2 μM or 20 μM Pomalidomide, FIG. 5
Experimental: HEK-293FT (Invitrogen) cells were maintained in DMEM medium supplemented with 10% FBS, 100 U/mL Penicillin and 100 μg/mL streptomycin. Stable cell lines were established by lentiviral infection followed by growth in media containing 10 μg/mL blasticidin, followed by fluorescence activated cell sorting to collect GFP-expressing cells.
On day 0, 250,000 cells were seeded into each of three wells of a 6-well plate. […] Cells were washed twice with ice-cold PBS and harvested in EBC Lysis Buffer supplemented with 1× protease inhibitor (Roche). Whole cell extracts were resolved by SDS-PAGE, transferred onto a nitrocellulose membrane, and probed with indicated primary antibodies.

[7] = tested on: DCK-IKZF1-IRES-GFP in 293T cells; experiment: Up assay with limited drug library of approximately 700 compounds; assay type: cell-based; conditions: ~700 compound library, BVdU on Day 2, read Day 5, FIG. 25
Experimental: For the up assay experiment, 293T cells stably infected to produce DCK-IKZF1-IRES-GFP were seeded in three 384 well plates on Day 0. Each well on each plate received a library drug from a ˜700 compound drug library, and BVdU on Day 2.

[8] = target: T2, IKZF1-Firefly luciferase protein in 293T cells (UniProt P08659+Q13422+Q96SW2); experiment: Down assay, Firefly/Renilla luciferase ratio; assay type: cell-based; conditions: read Day 5, FIG. 26
T2 construct: expressed in transfected cells; host or cells: 293T, stably infected
Experimental: A down assay experiment was conducted in parallel with the up assay experiment. For the down assay experiment, 293T cells stably infected to produce the IKZF1-Firefly luciferase protein as well as the Renilla luciferase protein from a single mRNA transcript were treated as described in the “Up” Assay. On Day 5, for each plate, Firefly and Renilla luciferase signals were quantified, and the Firefly/Renilla ratio calculated for each well and converted to a Z-statistic and plotted (FIG. 26). The hits noted in the “Up Assay” have been labeled in FIG. 25 and FIG. 26 to allow for comparison between the two assays.

T1 sequence (P27707 whole entry, species assumed, the tested form may be a part): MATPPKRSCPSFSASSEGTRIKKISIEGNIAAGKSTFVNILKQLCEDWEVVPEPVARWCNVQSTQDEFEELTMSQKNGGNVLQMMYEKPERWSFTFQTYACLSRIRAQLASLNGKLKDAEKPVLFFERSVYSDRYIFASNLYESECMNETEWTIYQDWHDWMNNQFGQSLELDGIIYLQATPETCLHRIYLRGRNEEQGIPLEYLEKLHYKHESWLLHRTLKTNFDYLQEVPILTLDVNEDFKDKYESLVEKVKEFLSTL
T2 sequence (Q13422+P08659 fused): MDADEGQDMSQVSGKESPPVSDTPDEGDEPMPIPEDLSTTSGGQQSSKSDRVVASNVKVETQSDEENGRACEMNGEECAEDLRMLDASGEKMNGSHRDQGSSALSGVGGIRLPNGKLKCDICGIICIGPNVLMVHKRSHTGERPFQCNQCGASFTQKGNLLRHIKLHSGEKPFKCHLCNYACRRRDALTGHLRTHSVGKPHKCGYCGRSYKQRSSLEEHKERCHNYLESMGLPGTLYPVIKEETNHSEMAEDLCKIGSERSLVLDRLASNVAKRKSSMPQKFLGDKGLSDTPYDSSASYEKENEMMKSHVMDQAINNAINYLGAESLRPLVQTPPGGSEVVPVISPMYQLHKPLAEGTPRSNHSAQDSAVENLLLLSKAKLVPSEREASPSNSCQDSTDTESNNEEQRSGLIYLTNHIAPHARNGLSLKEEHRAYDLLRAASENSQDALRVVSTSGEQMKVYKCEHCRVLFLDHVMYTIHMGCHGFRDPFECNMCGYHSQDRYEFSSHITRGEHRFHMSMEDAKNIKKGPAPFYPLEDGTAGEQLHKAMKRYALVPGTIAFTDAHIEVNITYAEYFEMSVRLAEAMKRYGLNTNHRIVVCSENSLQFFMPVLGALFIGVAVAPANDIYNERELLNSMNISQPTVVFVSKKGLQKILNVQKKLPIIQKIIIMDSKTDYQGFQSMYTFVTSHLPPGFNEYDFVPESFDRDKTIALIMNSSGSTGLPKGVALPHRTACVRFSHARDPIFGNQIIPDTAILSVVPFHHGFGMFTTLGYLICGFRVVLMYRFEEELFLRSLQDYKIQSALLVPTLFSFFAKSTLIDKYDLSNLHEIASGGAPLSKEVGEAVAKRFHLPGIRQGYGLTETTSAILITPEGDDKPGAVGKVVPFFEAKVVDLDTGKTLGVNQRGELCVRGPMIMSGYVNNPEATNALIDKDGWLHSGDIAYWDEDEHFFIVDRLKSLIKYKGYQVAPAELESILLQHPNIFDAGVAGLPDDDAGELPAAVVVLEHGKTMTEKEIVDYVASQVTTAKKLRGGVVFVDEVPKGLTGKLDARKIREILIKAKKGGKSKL
T2 sequence (Q96SW2 whole entry): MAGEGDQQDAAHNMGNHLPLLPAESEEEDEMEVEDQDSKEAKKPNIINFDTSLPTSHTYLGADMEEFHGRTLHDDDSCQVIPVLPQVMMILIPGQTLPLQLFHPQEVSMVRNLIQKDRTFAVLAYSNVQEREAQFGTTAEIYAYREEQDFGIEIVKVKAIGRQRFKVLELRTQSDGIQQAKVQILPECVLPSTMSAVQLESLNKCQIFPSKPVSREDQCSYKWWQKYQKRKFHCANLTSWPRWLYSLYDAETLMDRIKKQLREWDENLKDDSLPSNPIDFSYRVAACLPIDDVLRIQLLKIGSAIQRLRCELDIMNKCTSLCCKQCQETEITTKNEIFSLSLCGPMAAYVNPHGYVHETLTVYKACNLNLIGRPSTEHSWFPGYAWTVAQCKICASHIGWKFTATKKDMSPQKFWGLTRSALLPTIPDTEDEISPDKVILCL
T2 sequence (Q16531 whole entry partner): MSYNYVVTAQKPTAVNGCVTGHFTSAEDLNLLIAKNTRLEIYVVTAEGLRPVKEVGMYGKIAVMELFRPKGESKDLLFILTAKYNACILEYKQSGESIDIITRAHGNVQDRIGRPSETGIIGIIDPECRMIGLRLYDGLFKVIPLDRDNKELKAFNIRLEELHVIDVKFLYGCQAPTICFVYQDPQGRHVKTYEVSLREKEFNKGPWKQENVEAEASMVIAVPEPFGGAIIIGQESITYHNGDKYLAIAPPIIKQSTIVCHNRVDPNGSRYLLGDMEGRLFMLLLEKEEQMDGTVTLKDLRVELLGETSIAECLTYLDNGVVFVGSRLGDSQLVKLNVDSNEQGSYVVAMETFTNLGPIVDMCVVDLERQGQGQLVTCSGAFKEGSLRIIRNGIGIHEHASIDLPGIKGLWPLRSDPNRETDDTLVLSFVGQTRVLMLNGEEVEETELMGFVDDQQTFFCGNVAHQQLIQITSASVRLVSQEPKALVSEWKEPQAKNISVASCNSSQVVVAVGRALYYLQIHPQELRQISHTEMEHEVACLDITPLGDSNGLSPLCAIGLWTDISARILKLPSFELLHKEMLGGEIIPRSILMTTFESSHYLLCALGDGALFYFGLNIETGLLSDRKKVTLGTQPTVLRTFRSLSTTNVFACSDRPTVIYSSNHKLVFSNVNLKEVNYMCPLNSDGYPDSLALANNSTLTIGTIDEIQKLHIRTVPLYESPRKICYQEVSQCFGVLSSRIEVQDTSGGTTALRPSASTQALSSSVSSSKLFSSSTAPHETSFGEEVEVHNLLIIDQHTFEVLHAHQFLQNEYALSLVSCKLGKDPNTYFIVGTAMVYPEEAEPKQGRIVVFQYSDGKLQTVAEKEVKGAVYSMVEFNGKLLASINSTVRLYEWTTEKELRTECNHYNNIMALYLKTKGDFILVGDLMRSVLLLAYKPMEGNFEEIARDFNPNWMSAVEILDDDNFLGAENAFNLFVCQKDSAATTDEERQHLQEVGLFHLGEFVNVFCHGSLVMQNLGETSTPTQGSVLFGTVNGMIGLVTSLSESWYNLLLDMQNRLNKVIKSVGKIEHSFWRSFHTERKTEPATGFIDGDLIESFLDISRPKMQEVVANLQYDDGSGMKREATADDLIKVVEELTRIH

O=c1[nH]c(=O)n([C@H]2C[C@H](O)[C@@H](CO)O2)cc1/C=C/Br [BVdU, bromovinyl-deoxyuridine]
EV-GFP cells as fraction of the cell mixture ([1]; day 3): 29% | EV-GFP cells as fraction of the cell mixture ([1]; day 7): 88%

OCCN(CCO)c1nc(N2CCCCC2)c2nc(N(CCO)CCO)nc(N3CCCCC3)c2n1 [Dipyridamole, dipyridamole]
Hit classification in pilot up-assay screen (GFP Z-statistic) [2]: non-specific hits | Classification by GFP and GFP/Tomato ratio in the same well (DCK-IKZF1-IRES-GFP): assay positive

Nc1cccc2c1C(=O)N(C1CCC(=O)NC1=O)C2=O (stereo not shown) [Pomalidomide, pomalidomide]
Rescue from BVdU in cells expressing enzyme only (DCK+Pom) [3]: rescue did not occur | Outgrowth of GFP+ (dCK-IKZF3) cells from 1% initial population (dCK-IKZF3 fusion protein [4]): allowed for outgrowth of GFP+cells | Hit classification in pilot up-assay screen (GFP Z-statistic) [2]: true-positive hits | Rescue of cell viability from BVdU in cells expressing the fusion construct (CK-IKZF+Pom) (dCK-IKZF3 fusion protein [5]): partial rescue and cell growth | Classification by GFP and GFP/Tomato ratio in the same well (DCK-IKZF1-IRES-GFP): true positive | Cellular levels of IKZF3 and IKZF3 fusion proteins [6]: highly sensitive | Hit classification in up assay (GFP Z-statistic) [7]: true-positive hits

Cc1cn([C@H]2C[C@H](O)[C@@H](CO)O2)c(=O)[nH]c1=O [Thymidine]
Hit classification in down assay (Firefly/Renilla ratio Z-statistic) [8]: does not score | Hit classification in up assay (GFP Z-statistic) [7]: assay positive
